This note sets out measurements from patent US8545898B2, “Broad-spectrum antiviral composition with excellent preservation stabilty” (Taiko Pharmaceutical Co., Ltd., priority 2007, dated 2013).

Where two headings read alike, the source gives them in different places. A value given as a limit tells only on which side of the number the result lay.

In assay [1] the test system is canine parvovirus <CPV(Y-1)>. Put plainly: Antiviral testing (canine parvovirus), TCID50 by swine hemagglutination test, CRFK cells. The class given is cell-based.
Assay [2] concerns the target human hepatitis B surface antigen (HBsAg) (Hepatitis B virus genotype C subtype adr, UniProt P12934). Put plainly: Anti-HBsAg activity, HBsAg titer by chemiluminescent immunoassay. The class given is biochemical. As to conditions: 100 ppm; for HBsAg antigen titer: untreated 54 IU/ml. The method, then: For the antiviral testing, various concentrations of the chlorine dioxide solutions (agent A, agent B) were prepared and left in respective containers made of synthetic resin for 8 months. Specifically, each of the chlorine dioxide solutions obtained in each of Examples 1 and 2 was placed in a container having an opening with a diameter of 2 cm, and after closing a screw-cap, the container was left at room temperature for 8 months. Subsequently, an antiviral activity effect of the solution was examined. As controls, sodium hypochlorite (agent C), stabilized chlorine dioxide (sodium chlorite) (agent D), and povidone-iodine (agent E) were used. The agents C to E were not preserved for 8 months, and subjected to the test immediately after the purchase.
Each agent was added to human hepatitis B surface antigen (HBsAg), and after 1, 2, 3 or 4 days of sensitization, the agent was neutralized with a sodium thiosulfate solution, and HBsAg titer was measured using a chemiluminescent immunoassay “Architect-HBsAg (manufactured by Dainabot Co., Ltd.)”. An anti-HBsAg activity of the agent was evaluated.

Chain of human hepatitis B surface antigen (HBsAg) (P12934 whole entry): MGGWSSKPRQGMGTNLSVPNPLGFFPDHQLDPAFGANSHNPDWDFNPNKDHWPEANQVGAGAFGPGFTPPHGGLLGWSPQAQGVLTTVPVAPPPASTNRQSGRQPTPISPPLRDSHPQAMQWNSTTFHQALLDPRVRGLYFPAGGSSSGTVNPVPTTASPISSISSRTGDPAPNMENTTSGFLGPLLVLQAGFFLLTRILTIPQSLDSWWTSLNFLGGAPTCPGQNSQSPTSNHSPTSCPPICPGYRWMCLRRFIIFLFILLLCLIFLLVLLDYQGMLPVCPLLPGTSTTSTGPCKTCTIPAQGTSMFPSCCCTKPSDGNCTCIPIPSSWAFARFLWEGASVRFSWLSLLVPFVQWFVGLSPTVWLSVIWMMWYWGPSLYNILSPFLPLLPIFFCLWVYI

For the compound `OCl` [sodium hypochlorite, Sodium hypochlorite], the “CPV infectivity titer remaining” value in assay [1] (10 ppm, after 180 seconds) is listed as 100 TCID50. Also, in assay [1] (100 ppm, after 120 seconds), the “decrease in CPV infectivity titer” value is reported as at least 99.99%. The anti-HBsAg activity entry in assay [2] (1 to 4 days) was “absence of an anti-HBsAg activity”. Besides, the HBsAg antigen titer in assay [2] (sensitized time 1 day) was 50 IU/ml; in assay [2] (sensitized time 2 days), 51 IU/ml; in assay [2] (sensitized time 3 days), 51 IU/ml; in assay [2] (sensitized time 4 days), 49 IU/ml.

“sodium chlorite [stabilized chlorine dioxide solution]”: the “decrease in CPV infectivity titer” value in assay [1] was “no decrease in the infectivity titer was observed”.
